“Also recorded” adds a separate entry of the source.
Columns and labels:
[1] = system: AMO1, H929 and KMS11 MM cells; experiment: Cell surface exposure of CALR (flow cytometry); format: cell-based, human
Procedure: (§1) Multiple myeloma (MM) cells were seeded in 12-well plates (2×10^5 per well), treated with BTZ for 16 h at indicated concentrations, and then stained with Alexa Fluor647® anti-calreticulin antibody (ab196159, Abcam) and 7-AAD. Analysis of fluorescence intensity on 7-AAD negative cells was assessed using BD LRSFortessa™ X-20 flow cytometer.
(§2) MM cells were seeded in 12-well plates (2×10^5 per well), treated with BTZ for 16 h at indicated concentrations, and then stained with Alexa Fluor647® anti-calreticulin antibody (ab196159, Abcam) and 7-AAD. Analysis of fluorescence intensity on 7-AAD negative cells using BD LRSFortessa X-20 flow cytometer.

5TGM1 MM cells = experiment: Cell surface exposure of CALR (flow cytometry); format: cell-based, murine; settings: 16 h
Procedure: as §1, §2

T cells = experiment: Analysis of T cell priming (co-culture of MM cells, DCs and T cells); format: cell-based, human
Procedure: DCs were generated from freshly isolated PBMCs as previously described. T cells were negatively selected from CD14− PBMCs using the Pan T cell Isolation Kit (Miltenyi Biotec) and frozen until immature DCs were generated. Either untreated or BTZ-treated MM cells were co-cultured with DCs and T cells for 5 days. T cells and DCs were also cultured in the absence of MM cells and in the presence of BTZ to assess the direct effects of drug on T cells and DCs. After 5 day co-culture, cells were treated with Dynabeads™ Human T-Activator CD3/CD28 (Cat. #11131D, ThermoFisher Scientific) 5 h before analysis, and with GolgiStop™ and GolgiPlug™ (Cat. #554724 and Cat. #555029, BD Biosciences) 3 h before analysis, following the manufacturer's instructions. Cells were then collected and T cell populations were analyzed by CyTOF analysis.
DCs were generated from healthy donors PBMCs as described above (“Generation of Mo-DCs” section). T cells were negatively selected from CD14-PBMCs from the same donors using the Pan T cell Isolation Kit (Miltenyi Biotec) and frozen until immature DCs were generated. Either untreated or BTZ-treated multiple myeloma cells were co-cultured with DCs and T cells for 5 days. T cells and DCs were similarly cultured in the absence of multiple myeloma cells and in the presence of BTZ. Before analysis, cells were treated with Dynabeads™ Human T-Activator CD3/CD28 (#11131D, ThermoFisher Scientific), and with GolgiStop™ and GolgiPlug™ (#554724 and #555029, BD Biosciences). T cell populations were analyzed using 10 color flow-cytometry with the following Abs: CD3-BV605 (#317322), CD8-FITC (#344704), CD4-PerCP/Cyanine5.5 (#317428), CD45RO-APC (#304210), CCR7-PE (#353204), CD69-PE/Cyanine7 (#310912), and IL-2-BV785 (#500348), IFNγ-BV421 (#502532) (BioLegend); and PD1-Super Bright 702 (#67-998-582). LIVE/DEAD™ Fixable Aqua dead Cell Stain(#L34966) (ThermoFisher Scientific) was also added to discriminate dead cells. Intracellular staining for IL-2 and IFNγ was performed using the Fixation/Permeabilization Solution Kit (BD Biosciences).
When T cell experiments were performed using patient multiple myeloma cells, the entire population of autologous BMMCs was cultured in presence and absence of BTZ and analyzed after 5 days. Data from experiments performed using multiple myeloma cell lines were analyzed with a bioinformatic semiautomated pipeline (Perez et al. (2020) Blood; 136(2):199-209). Briefly, flow cytometry files were entered in a custom R script which includes different bioinformatic algorithms and has been designed to reduce the impact of technical and instrumental differences, minimize the variability of manual analysis, and reveal full cellular diversity based on automatic semi-supervised clustering. Data from primary MM patients were manually analyzed by using Infinicyt 2.0 (Cytognos, Salamanca, Spain).

U266 cells = experiment: Cytotoxicity assay (T cell lysis of MM cells); format: cell-based, human; settings: T cells from BTZ co-culture, 24 h
Procedure: After coculture of HLA-matched DCs and T cells from healthy donors with either untreated or BTZ-treated U266 cells for 5 days, T cells were negatively selected using the Pan T cell Isolation Kit (Miltenyi Biotec) and plated in round bottom 96-well plates with naïve U266 cells pre-stained with CFSE dye (ThermoFisher Scientific) at different target:effector (T:E) ratios for 24 h in the presence of IL-2 (#130-097-74, Miltenyi Biotec). Then cells were 7AAD-stained, and detection of viable CFSE-gated cells was performed using BD LRSFortessa X-20 cytometer.

CC(C)C[C@H](NC(=O)[C@H](Cc1ccccc1)NC(=O)c1cnccn1)B(O)O [BTZ, bortezomib]
CALR exposure on cell surface ([1]; AMO1, H929 WT, BTZ 1-10 nM, 16 h, viable (7-AAD negative) cells): triggers calreticulin (CALR; also referred to as CRT) exposure by cancer cells; also recorded: can induce hallmarks of ICD in human and murine MM cell lines; also recorded: dose-dependent increase of CTLR exposure
CALR exposure on cell surface ([1]; AMO1 STING^KO, BTZ 5 nM, 16 h): did not alter CALR exposure process
CALR exposure on cell surface ([1]; AMO1 and H929 GABARAP^KO clones): did not increase CRT exposure; also recorded: GABARAP^KO blocks CALR exposure upon BTZ
CALR exposure on cell surface ([1]; AMO1 and H929 GABARAP^KO clones, listed as Bortezomib): did not induce CALR exposure in MM cells due to GABARAP deletion
CALR exposure on cell surface ([1]; KMS11 cells (monoallelic deletion of GABARAP)): did not lead to an increase of CRT exposure
CALR exposure on cell surface (5TGM1 MM cells; 5TGM1 Sting^KO, BTZ 7.5 nM): did not alter CALR exposure process
CALR exposure on cell surface (5TGM1 MM cells; 5TGM1 WT, BTZ 1-10 nM): can induce hallmarks of ICD in human and murine MM cell lines; also recorded: dose-dependent increase of CTLR exposure
T cell subsets (CD4+ EM, total CD8+, CD8+ EM) (T cells; BTZ-treated AMO1 STING^KO vs WT): no significant increase of CD4+EM; total CD8+; and CD8+EM cells
T cell subsets (CD4+ EM, total CD8+, CD8+ EM, CD8+ TEMRA) (T cells; BTZ-treated AMO1 or H929 cells with DCs and T cells, 5 days): significant increase of CD4+ effector memory (EM); total CD8+; CD8+EM and CD8+ terminally differentiated EM (TEMRA) cells
T cell subsets / T cell maturation (T cells; DCs and T cells with BTZ 5 nM in the absence of MM cells, 5 days): not observed by treating DCs and T cells with BTZ in the absence of multiple myeloma cells; also recorded: does not induce T cell maturation
T cell phenotype / priming (CyTOF) (T cells; DCs primed by BTZ-treated AMO1 GABARAP^KO): led to T cell exhaustion; also recorded: GABARAP^KO blocks T cell priming by DCs after BTZ treatment
CD4+ T cell phenotype (CyTOF) (T cells; DCs primed by BTZ-treated AMO1 WT): switched CD4+ T cells towards an effector memory function
CD4+ and CD8+ T cell populations (T cells; autologous BMMCs from MM patients, BTZ 5 nM, 5 days): confirmed the phenotypic changes in both CD4+ and CD8+ T cell populations
lysis of MM cells by T cells isolated after co-culture (U266 cells): able to efficiently induce lysis of multiple myeloma cells

— US12109266B2, “Modulating gabarap to modulate immunogenic cell death” (Dana-Farber Cancer Institute, Inc., priority 2020, dated 2024)
